The text below walks through data of patent publication US5204345A, “6-epifumagillols and the pharmaceutical use thereof” (Takeda Chemical Industries, Ltd., priority 1989, dated 1993).

The test system of assay [1] is bFGF-induced angiogenesis. The experiment in a line: rat cornea micropocket method, angiogenesis inhibitory activity. The note with it: number of rats with angiogenesis inhibitory activity relative to number tested; sample 20 ug pellet, bFGF 250 ng, 10 days. Type of assay: in vivo, rat (Sprague-Dawley). The protocol: The object compounds (I) obtained in the Examples given below were evaluated for angiogenesis inhibitory activity by the rat cornea micropocket method. Method of Evaluation:
Essentially the same method of Gimbrone et al. [J. National Cancer Institute, 52, 413-419 (1974)] was followed. Thus, adult male Sprague-Dawley rats (11 to 16 week old) were anesthetized with nembutal and locally anesthetized by instillation of xylocaine eyedrops onto the eyeball. The cornea was incised to a length of about 2 mm at about 2 mm inside from the corneal circumference by means of an injection needle, and a basic fibroblast growth factor (bFGF; bovine brain-derived, purified product; R & D Inc.) and a sustained release pellet containing the test sample were inserted side by side into the incision so that the bFGF pellet was located on the central side in the cornea. In the control group, the bFGF pellet and a sample-free pellet were inserted into the cornea. After 10 days, the cornea was observed under a stereoscopic microscope.
The sustained release pellets were prepared in the following manner. An ethylene-vinyl acetate copolymer (Takeda Chemical Industries, Ltd.) was dissolved in dichloromethane to a concentration of 8%. A 3 μl portion of the solution was air-dried on a glass dish, an aqueous solution of bFGF (250 ng) was then placed thereon and air-dried and, finally 3 μl of the above ethylene-vinyl acetate copolymer solution was placed further thereon and air-dried to give a sandwich sheet. This sandwich sheet was made round into a bFGF pellet. The test sample pellets were prepared by dissolving each sample in ethanol in a concentration of 20 ug/2 μl, mixing the solution with 6 μl of an ethylene-vinyl acetate copolymer solution, air-drying the mixed solution in a glass dish and making the thus-obtainedsheet round.
In the Table 1 above, the inhibitory rate means the number of rats on which angiogenesis inhibitory activity was observed relative to the number of rats tested.

Assay [2] has as its system human umbilical vein endothelial cells. As to the kind of experiment: inhibition of human umbilical vein endothelial cell growth (MTT). Conditions: 120 h, rFGF 2 ng/ml, 5-day culture, MTT OD590, read-out: IC50, inhibiting endothelial cell growth. The class given is cell-based. The protocol:
Evaluation of inhibition of human umbilical vein endothelial cell growth
Human umbilical vein endothelial cells were isolated by perfusion of an umbilical vein with a trypsin-containing medium. The cells were cultured in sequence in GIT medium (Daigo Eiyo Kagaku) supplemented with 2.5% fetal bovine serum and 2.0 ng/ml or recombinant human fibroblast growth factor (hereinafter simply referred to rFGF, prepared at Biotechnology Research Laboratories, Takeda Chemical Industries, Ltd.).
A suspension of human vein endothelial cells at the cell density of 2×10^3 (100 μl) was seeded on 96-well incubation plate (Nunc, 1-67008), and incubation was conducted in a gas-controlled thermostat vessel. The following day, 100 μl of medium containing rFGF (2 ng/ml at the final concentration) and samples of various concentrations were added. […] After 5-day culture, the culture solution containing samples was removed by suction, 100 μl of 1 mg/ml of MTT solution [3-(4,5-dimethyl-2-thiazolyl)-2,5-diphenyl-2H-tetrazolium bromide was dissolved in the culture solution] was added and kept warm it about 40° C. for 4 hours. Then, 100 μl of a 10% SDS solution (aqueous solution of sodium dodecyl sulfate) was added, and the mixture was kept warming for 5-6 hours. The cells and MTT pigment were solubilized, and the OD590 value was measured using a spectrophotometer.

Assay [3] deals with spleen cells from BALB/c and C57BL/6 mice. As to the kind of experiment: 3H-thymidine uptake induced by the mixed lymphocyte reaction of spleen cells. Type of assay: cell-based, mouse (BALB/c and C57BL/6). The note with it: Mus musculus, in vitro.
Assay [4] deals with T cell dependent immunoglobulin production. As to the kind of experiment: antibody production induced by pokeweed mitogen (T cell dependent B cell mitogen). Type of assay: cell-based. The note with it: in vitro. From the text:
(§1) The effects of compounds 5 and 8 on the antibody production induced by pokeweed mitogen, a T cell dependent B cell mitogen, and Epstein Barr virus, a T cell independent B cell mitogen, were examined.

For assay [5], the system named is T cell independent antibody production. As to the kind of experiment: antibody production induced by Epstein Barr virus (T cell independent B cell mitogen). Conditions: in vitro. Type of assay: cell-based.
Description: as §1

The test system of assay [6] is anti-bovine gamma globulin antibody titer. The experiment in a line: anti-bovine gamma globulin antibody titer in immunized mice. Type of assay: in vivo, mouse (BALB/c). Conditions: for Anti-bovine gamma globulin antibody titer, suppression: 20 mg/kg i.p. every 2 days, sera 3 weeks after immunization, words; for Anti-bovine gamma globulin Ab titer: percentage against reference group injected with saline, compounds 5 and 8: 20 mg/kg i.p. every 2 days, 3 weeks. The procedure: Anti-bovine gamma globulin antibody titer was assayed in sera obtained 3 weeks after the immunization.

Assay [7] has as its system germinal center formation and plasma cell induction in the spleen. As to the kind of experiment: histological study in the spleen of mice immunized with sheep red blood cells. Type of assay: in vivo, mouse (BALB/c). The note with it: compounds 5 and 8: 100 mg/kg i.p. once a day for 4 days; day 6 after immunization; words.
A further assay is described as follows: thymus and spleen weight. Type of assay: in vivo, mouse (BALB/c). Conditions: for Spleen weight / Thymus weight: percentage against reference group injected with saline; for reduction of spleen weight: words.
Where [8] appears, read: Lymphocyte, Table 3, read-out: Mixed lymphocyte reaction, concentration which showed 50% inhibition.
[9] abbreviates: mixed lymphocyte reaction, read-out: 50% inhibition of 3H-thymidine uptake, concentration.
The mark [10] stands for this setting: Table 3, read-out: T dependent Ab production, concentration which showed 50% inhibition.
[11] abbreviates: pokeweed mitogen, read-out: 50% suppression of T cell dependent immunoglobulin production, concentration.
The mark [12] stands for this setting: Epstein Barr virus, read-out: 50% suppression of T cell independent antibody production, concentration.
Setting [13] is: Table 3, read-out: T independent Ab production, concentration which showed 50% inhibition.

Values after ≈ are worked out from the molar mass of the structure shown. Read-outs that look alike come from different tables or passages of the source.

Description for thymus and spleen weight: and spleen were represented as percentages against those of a reference
group which were injected with saline.

`CO[C@@H]1[C@@H](OC=O)CC[C@]2(CO2)[C@H]1[C@@]1(C)O[C@@H]1CC=C(C)C` [Example 1, 6-O-formyl-6-epifumagillol]: the “Inhibitory Rate” value in assay [1] is given as 3/7. Besides, in assay [2], the IC50 is less than 0.08 ng/mL.

Regarding `CO[C@@H]1[C@@H](O)CC[C@]2(CO2)[C@H]1[C@@]1(C)O[C@@H]1CC=C(C)C` [Example 2, 6-epifumagillol], in assay [1], the “Inhibitory Rate” value is recorded as 3/7. Also, the IC50 in assay [2] was less than 0.08 ng/mL.

For `CO[C@@H]1[C@@H](OC)CC[C@]2(CO2)[C@H]1[C@@]1(C)O[C@@H]1CC=C(C)C` [Example 3, 6-O-methyl-6-epifumagillol], in assay [2], the IC50 stood at 9.82 ng/mL (≈ 33.1 nM).

On to `CO[C@@H]1[C@@H](OC(C)=O)CC[C@]2(CO2)[C@H]1[C@@]1(C)O[C@@H]1CC=C(C)C` [Example 5, 6-O-acetyl-6-epifumagillol], for which the “Inhibitory Rate” value in assay [1] was 4/8. Moreover, the IC50 in assay [2] came to 1.91 ng/mL (≈ 5.89 nM); in assay [3] (setting [8]) it was 300 nM; in assay [3] (setting [9]), 300 nM; in assay [4] (setting [10]), 7000 nM; in assay [4] (setting [11]), 7000 nM; in assay [5] (setting [12]), 30 nM. Besides, the IC50 in assay [5] (setting [13]) stood at 30 nM. The “Anti-bovine gamma globulin antibody titer, suppression” value in assay [6] is recorded as “significant suppression”. The “Anti-bovine gamma globulin Ab titer” value in assay [6] is 13%. Further, the “formation of germinal center in the spleen” value in assay [7] was “suppressed the formation of germinal center”. Moreover, in assay [7], the “induction of plasma cells in the spleen” value is “suppressed”. This compound also came in with a Spleen weight in the assay “thymus and spleen weight” of 57%. Besides, the Thymus weight in the assay “thymus and spleen weight” was determined as 105%. The “reduction of spleen weight” value in “thymus and spleen weight” is on record as “reduction of spleen weight was observed”.

In the case of `CO[C@@H]1[C@@H](OC(=O)c2ccccc2)CC[C@]2(CO2)[C@H]1[C@@]1(C)O[C@@H]1CC=C(C)C` [Example 6, 6-O-benzoyl-6-epifumagillol], the “Inhibitory Rate” value in assay [1] is given as 6/6. In addition, the IC50 in assay [2] is 2.05 ng/mL (≈ 5.3 nM).

Turning to `CO[C@@H]1[C@@H](OC(=O)CCC(=O)O)CC[C@]2(CO2)[C@H]1[C@@]1(C)O[C@@H]1CC=C(C)C` [Example 7, 6-O-(3-carboxypropionyl)-6-epifumagillol], the “Inhibitory Rate” value in assay [1] was 5/6. Also, the IC50 in assay [2] amounted to 8.71 ng/mL (≈ 22.8 nM).

Turning to `CO[C@@H]1[C@@H](OC(=O)Oc2ccccc2)CC[C@]2(CO2)[C@H]1[C@@]1(C)O[C@@H]1CC=C(C)C` [Example 8, 6-O-phenoxycarbonyl-6-epifumagillol], in assay [1], the “Inhibitory Rate” value was 5/7. Moreover, the IC50 in assay [2] came to 0.166 ng/mL (≈ 0.412 nM); in assay [3] (setting [8]) it was 400 nM; in assay [3] (setting [9]), 10 nM; in assay [4] (setting [10]), 4000 nM; in assay [4] (setting [11]) it was 4000 nM; in assay [5] (setting [12]) it was 1 nM. For the same compound, in assay [5] (setting [13]), the IC50 turned out to be 1 nM. In assay [6], the “Anti-bovine gamma globulin antibody titer, suppression” value was “significant suppression”. Further, in assay [6], the “Anti-bovine gamma globulin Ab titer” value was determined as 9%. In addition, the “formation of germinal center in the spleen” value in assay [7] is reported as “suppressed the formation of germinal center”. In addition, the “induction of plasma cells in the spleen” value in assay [7] is on record as “suppressed”. The Spleen weight in “thymus and spleen weight” is recorded as 60%. Moreover, in the assay “thymus and spleen weight”, the Thymus weight was 116%. Besides, the “reduction of spleen weight” value in the assay “thymus and spleen weight” is on record as “reduction of spleen weight was observed”.

Regarding `CO[C@@H]1[C@@H](OC(N)=O)CC[C@]2(CO2)[C@H]1[C@@]1(C)O[C@@H]1CC=C(C)C` [Example 9, 6-O-carbamoyl-6-epifumagillol], in assay [2], the IC50 was determined as 0.1 ng/mL (≈ 0.307 nM).

For the compound `CO[C@@H]1[C@@H](OC(=O)N2CCOCC2)CC[C@]2(CO2)[C@H]1[C@@]1(C)O[C@@H]1CC=C(C)C` [Example 11, 6-O-morpholinocarbonyl-6-epifumagillol], the IC50 in assay [2] worked out at 4.68 ng/mL (≈ 11.8 nM).

`CO[C@@H]1[C@@H](OS(C)(=O)=O)CC[C@]2(CO2)[C@H]1[C@@]1(C)O[C@@H]1CC=C(C)C` [Example 12, 6-O-methanesulfonyl-6-epifumagillol]: in assay [1], the “Inhibitory Rate” value is on record as 3/4. For the same compound, in assay [2], the IC50 turned out to be 6.5 ng/mL (≈ 18 nM).
